These results are taken from patent US20260224589A1 (priority 2023, published 2026).

Like-named read-outs stand apart in the source and are kept apart here.

In the experiment the test system is AsPC-1 cells. As to the kind of experiment: phospho-ERK HTRF assay in AsPC-1 cells, 4 h treatment. Conditions: Homo sapiens, ASPC1. The experiment is classed as cell-based. On the technique in general: In TR-FRET formats the signal depends on donor and acceptor labels being close together.
Where [1] appears, read: AsPC-1, 4h, Table 1b, read-out: PERK IC50 (AsPC-1, 4h).
[2] abbreviates: AsPC-1, 4H, Table 1a class column, read-out: pERK IC50 activity range (*).
The mark [3] stands for this setting: AsPC-1, 4H, Table 1a, read-out: PERK IC50 (AsPC-1, 4H).

For `CC#Cc1cc(N)c(F)c([C@@H]2Cc3nc(OC[C@@]45CCCN4C/C(=C\F)C5)nc(N4CCCn5nc(C(=O)N(C)C)c(Cl)c5C4)c3CO2)c1C(F)(F)F` [compound 437], the IC50 (in general, the concentration needed to halve the response being measured) under setting [1] is < 10 nM. On to `Nc1ccc(C(F)(F)F)c([C@@H]2Cc3nc(OC[C@@]45CCCN4C[C@H](F)C5)nc(N4CCNC(=O)CC4)c3CO2)c1F` [compound 205], for which the 50% inhibitory concentration (IC50) runs as follows: under setting [2], > 500 nM; under setting [3], > 10000 nM.

For `CCN(C)C(=O)c1nn2c(c1Cl)CN(c1nc(OC[C@@]34CCCN3C[C@H](F)C4)nc3c1CO[C@H](c1c(F)c(N)cc(Cl)c1C(F)(F)F)C3)CCC2` [compound 433], the IC50 under setting [1] is < 10 nM. As for `Cc1cc(N)cc([C@@H]2Cc3nc(OC[C@@]45CCCN4C/C(=C\F)C5)nc(N4CCCn5nc(C(=O)N6CCC6)cc5C4)c3CO2)c1C(F)(F)F` [compound 403], under setting [2], the IC50 fell in the range of 10 to 30 nM. As for `Cc1c(C(=O)N(C)C)nn2c1CN(c1nc(OC[C@@]34CCCN3C/C(=C\F)C4)nc3c1CO[C@H](c1cc(N)cc(Cl)c1C(F)(F)F)C3)CCC2` [compound 300, 5-((S)-7-(5-amino-3-chloro-2-(trifluoromethyl)phenyl)-2-(((S,Z)-2-(fluoromethylene)tetrahydro-1H-pyrrolizin-7a(5H)-yl)methoxy)-7,8-dihydro-5H-pyrano[4,3-d]pyrimidin-4-yl)-N,N,3-trimethyl-5,6,7,8-tetrahydro-4H-pyrazolo[1,5-a][1,4]diazepine-2-carboxamide], the IC50 under setting [1] is < 10 nM. As for `CC#Cc1cc(N)cc([C@@H]2Cc3nc(OC[C@@]45CCCN4C[C@H](F)C5)nc(N4CCCn5nc(C(=O)N(C)C)c(C)c5C4)c3CO2)c1C(F)(F)F` [compound 419], the half-maximal inhibitory concentration (IC50) under setting [1] is < 10 nM. With `CN(C)C(=O)c1nc2c(s1)CN(c1nc(OC[C@@]34CCCN3C[C@H](F)C4)nc3c1CO[C@H](c1c(C(F)(F)F)ccc(N)c1F)C3)CCC2` [compound 209], the 50% inhibitory concentration (IC50) was 101 to 500 nM under setting [2] and 479 nM under setting [3]. As to `CN(C)C(=O)c1nn2c(c1Cl)CN(c1nc(OC[C@@]34CCCN3C/C(=C\F)C4)nc3c1CO[C@H](c1c(F)c(N)cc(Cl)c1C(F)(F)F)C3)CCC2` [247a, 5-((S)-7-(3-amino-5-chloro-2-fluoro-6-(trifluoromethyl)phenyl)-2-(((S,Z)-2-(fluoromethylene)tetrahydro-1H-pyrrolizin-7a(5H)-yl)methoxy)-7,8-dihydro-5H-pyrano[4,3-d]pyrimidin-4-yl)-3-chloro-N,N-dimethyl-5,6,7,8-tetrahydro-4H-pyrazolo[1,5-a][1,4]diazepine-2-carboxamide], the IC50 under setting [1] is < 10 nM. Consider `CC#Cc1cc(N)cc([C@@H]2Cc3nc(OC[C@@]45CCCN4C[C@H](F)C5)nc(N4CCCn5nc(C(=O)N(C)C)cc5C4)c3CO2)c1C(F)(F)F` [compound 408], for which the concentration for half-maximal inhibition (IC50) under setting [2] is 10 to 30 nM. Take `CN(C)C(=O)c1nn2c(c1Cl)CN(c1nc(OC[C@@]34CCCN3C[C@H](F)C4)nc3c1CO[C@H](c1c(C(F)(F)F)ccc(Br)c1F)C3)CCC2` [compound 220]: the IC50 by setting is: under setting [2], > 500 nM; under setting [3], 1040 nM. Take `Nc1cc(Cl)c(C(F)(F)F)c([C@@H]2Cc3nc(OC[C@@]45CCCN4C/C(=C\F)C5)nc(N4CCCn5nc(C(=O)N6CCCC6)c(Cl)c5C4)c3CO2)c1` [compound 422]: the IC50 under setting [1] was < 10 nM. In the case of `Cc1cc(N)cc([C@@H]2Cc3nc(OC[C@@]45CCCN4C/C(=C\F)C5)nc(N4CCCn5nc(C(=O)N6CCCC6)cc5C4)c3CO2)c1C(F)(F)F` [compound 404], under setting [2], the IC50 was 10 to 30 nM.

On to `CN(C)C(=O)c1nn2c(c1F)CN(c1nc(OC[C@@]34CCCN3C/C(=C\F)C4)nc3c1CO[C@H](c1cc(N)cc(Cl)c1C(F)(F)F)C3)CCC2` [compound 412], for which the half-inhibitory concentration (IC50) under setting [1] is < 10 nM. Turning to `CC#Cc1cc(N)cc([C@@H]2Cc3nc(OC[C@@]45CCCN4C/C(=C\F)C5)nc(N4CCCn5nc(C(=O)N(C)CC)cc5C4)c3CO2)c1C(F)(F)F` [compound 428], the IC50 under setting [1] is < 10 nM.

In the case of `CON(C)C(=O)c1nn2c(c1Cl)CN(c1nc(OC[C@@]34CCCN3C/C(=C\F)C4)nc3c1COC(c1c(F)c(N)cc(Cl)c1C(F)(F)F)C3)CCC2` (stereo partly drawn) [compound 463], the IC50 under setting [2] is 10 to 30 nM.
